Test results as given in ChEMBL document CHEMBL4041483, “Aldgamycins J-O, 16-Membered Macrolides with a Branched Octose Unit from Streptomycetes sp. and Their Antibacterial Activities” (2016).
In brackets after ≈: the same amount, converted by molar mass.

Tests used:
Assay type in all cases: functional
Staphylococcus aureus = assay: Antibacterial activity against Staphylococcus aureus 209P incubated at room temperature for 30 mins followed by incubation at 37 degC for 12 hrs by two-fold dilution method
Aspergillus niger = assay: Antifungal activity against Aspergillus niger R330 incubated at room temperature for 30 mins followed by incubation at 32 degC for 12 hrs by two-fold dilution method
Candida albicans = assay: Antifungal activity against Candida albicans FIM709 incubated at room temperature for 30 mins followed by incubation at 32 degC for 12 hrs by two-fold dilution method
Escherichia coli = assay: Antibacterial activity against Escherichia coli ATCC 0111 incubated at room temperature for 30 mins followed by incubation at 37 degC for 12 hrs by two-fold dilution method

SMILES: CO[C@@H]1[C@H](O)[C@@H](C)O[C@@H](OC[C@H]2/C=C/CCC(=O)[C@H](C)C[C@H](C)[C@H](O[C@@H]3O[C@H](C)C[C@@]4(OC(=O)O[C@H]4C)[C@H]3O)[C@@H](C)/C=C/C(=O)O[C@@H]2C)[C@@H]1OC
- MIC (Staphylococcus aureus): 32 µg/mL (≈ 44 µM)
- MIC (Aspergillus niger): > 500 µg/mL
- MIC (Candida albicans): > 500 µg/mL
- MIC (Escherichia coli): > 500 µg/mL

SMILES: CO[C@@H]1[C@H](O)[C@@H](C)O[C@@H](OC[C@H]2[C@@H]3O[C@H]3CCC(=O)[C@@](C)(O)C[C@H](C)[C@H](O[C@@H]3O[C@H](C)C[C@](O)([C@H](C)O)[C@H]3O)[C@@H](C)/C=C/C(=O)O[C@@H]2C)[C@@H]1OC
- MIC (Staphylococcus aureus): 500 µg/mL (≈ 682 µM)
- MIC (Aspergillus niger): > 1000 µg/mL
- MIC (Candida albicans): > 1000 µg/mL
- MIC (Escherichia coli): > 1000 µg/mL

SMILES: CO[C@@H]1[C@H](O)[C@@H](C)O[C@@H](OC[C@H]2/C=C/C=C/C(=O)[C@H](C)C[C@H](C)[C@H](O[C@@H]3O[C@H](C)C[C@](O)([C@H](C)O)[C@H]3O)[C@@H](C)/C=C/C(=O)O[C@@H]2C)[C@@H]1OC
- MIC (Staphylococcus aureus): 125 µg/mL (≈ 179 µM)
- MIC (Aspergillus niger): > 1000 µg/mL
- MIC (Candida albicans): > 1000 µg/mL
- MIC (Escherichia coli): > 1000 µg/mL

SMILES: CO[C@@H]1[C@H](O)[C@@H](C)O[C@@H](OC[C@H]2[C@@H]3O[C@H]3/C=C/C(=O)[C@@](C)(O)C[C@H](C)[C@H](O[C@@H]3O[C@H](C)C[C@H](OC)[C@H]3O)[C@@H](C)/C=C/C(=O)O[C@@H]2C)[C@@H]1OC
- MIC (Staphylococcus aureus): 4 µg/mL (≈ 5.71 µM)
- MIC (Aspergillus niger): > 500 µg/mL
- MIC (Candida albicans): > 500 µg/mL
- MIC (Escherichia coli): > 500 µg/mL

SMILES: CO[C@@H]1[C@H](O)[C@@H](C)O[C@@H](OC[C@H]2/C=C/CCC(=O)[C@@](C)(O)C[C@H](C)[C@H](O[C@@H]3O[C@H](C)C[C@](O)([C@H](C)O)[C@H]3O)[C@@H](C)/C=C/C(=O)O[C@@H]2C)[C@@H]1OC
- MIC (Staphylococcus aureus): 32 µg/mL (≈ 44.6 µM)
- MIC (Aspergillus niger): > 500 µg/mL
- MIC (Candida albicans): > 500 µg/mL
- MIC (Escherichia coli): > 500 µg/mL

SMILES: CO[C@@H]1[C@H](O)[C@@H](C)O[C@@H](OC[C@H]2[C@@H]3O[C@H]3CCC(=O)[C@H](C)C[C@H](C)[C@H](O[C@@H]3O[C@H](C)C[C@](O)([C@H](C)O)[C@H]3O)[C@@H](C)/C=C/C(=O)O[C@@H]2C)[C@@H]1OC
- MIC (Staphylococcus aureus): > 1000 µg/mL
- MIC (Aspergillus niger): > 1000 µg/mL
- MIC (Candida albicans): > 1000 µg/mL
- MIC (Escherichia coli): > 1000 µg/mL

SMILES: CO[C@@H]1[C@H](O)[C@@H](C)O[C@@H](OC[C@H]2/C=C/C=C/C(=O)[C@@](C)(O)C[C@H](C)[C@H](O[C@@H]3O[C@H](C)C[C@](O)([C@H](C)O)[C@H]3O)[C@@H](C)/C=C/C(=O)O[C@@H]2C)[C@@H]1OC
- MIC (Staphylococcus aureus): 16 µg/mL (≈ 22.4 µM)
- MIC (Aspergillus niger): > 500 µg/mL
- MIC (Candida albicans): > 500 µg/mL
- MIC (Escherichia coli): > 500 µg/mL

SMILES: CO[C@@H]1[C@H](O)[C@@H](C)O[C@@H](OC[C@H]2/C=C/CCC(=O)[C@H](C)C[C@H](C)[C@H](O[C@@H]3O[C@H](C)C[C@](O)([C@H](C)O)[C@H]3O)[C@@H](C)/C=C/C(=O)O[C@@H]2C)[C@@H]1OC
- MIC (Staphylococcus aureus): 500 µg/mL (≈ 713 µM)
- MIC (Aspergillus niger): > 500 µg/mL
- MIC (Candida albicans): > 500 µg/mL
- MIC (Escherichia coli): > 500 µg/mL

SMILES: C[C@@H]1C[C@@H]([C@H](O)CC2CC(=O)NC(=O)C2)C(=O)[C@@H](C)C1 [CYCLOHEXIMIDE]
- MIC (Aspergillus niger): 32 µg/mL (≈ 114 µM)
- MIC (Candida albicans): 64 µg/mL (≈ 227 µM)

SMILES: NC[C@H]1O[C@H](O[C@H]2[C@H](O)[C@@H](O[C@H]3O[C@H](CO)[C@@H](O)[C@H](N)[C@H]3O)[C@H](N)C[C@@H]2N)[C@H](N)C[C@@H]1O [TOBRAMYCIN]
- MIC (Staphylococcus aureus): 0.2 µg/mL (≈ 0.428 µM)
- MIC (Escherichia coli): 2 µg/mL (≈ 4.28 µM)
